Earlier results in US20030064108A1, “TASTE MASKED PHARMACEUTICAL COMPOSITIONS” (priority 1996, published 2003).

Conditions: 1 g every 6 hours, repeated administration

mean maximum concentration: about 12 mg/L | mean trough plasma concentration (immediately pre-dose): 3 mg/L
SMILES: CC(=O)Nc1ccc(O)cc1 [paracetamol]
